This passage reports GI50 and IC50 results from patent publication US11786534B2 (TAIHO PHARMACEUTICAL CO., LTD., priority 2019, dated 2023).

The target in assay [1] is Ba/F3-EGFR (L858R/T790M/C797S) (Homo sapiens, UniProt P00533, T790M/C797S/L858R, cells depend on it). Nature of the assay: Growth inhibition of cell line expressing EGFR (L858R/T790M/C797S). It is filed as cell-based, mouse. The conditions noted are these: read-out: BaF3_EGFR (L858R/T790M/C797S) IC50 value. An excerpt:
(§1) Test for inhibitory activity against the growth of cell lines expressing wild-type and mutated EGFRs (in vitro)
(§2) (1) Mouse cell line Ba/F3-EGFR (d746-750/T790M/C797S) transfected with and stably expressing EGFR (d746-750/T790M/C797S), mouse cell Ba/F3-EGFR (L858R/T790M/C797S) transfected with and stably expressing EGFR (L858R/T790M/C797S), and mouse cell line Ba/F3-EGFR (WT) transfected with and stably expressing wild-type EGFR were each suspended in RPMI-1640 cell culture medium (RPMI-1640, 10% FBS, 100 unit/ml penicillin, 0.1 mg/ml streptomycin). In the case of the mouse cell line Ba/F3-EGFR (WT), RPMI-1640 cell culture medium containing EGF at a final concentration of 50 ng/ml was used to suspend this cell line. It should be noted that the mouse cell line Ba/F3-EGFR (d746-750/T790M/C797S) transfected with and stably expressing EGFR (d746-750/T790M/C797S), the mouse cell line Ba/F3-EGFR (L858R/T790M/C797S) transfected with and stably expressing EGFR (L858R/T790M/C797S) and the mouse cell line Ba/F3-EGFR (WT) transfected with and stably expressing wild-type EGFR were prepared by using nucleotide sequences encoding the proteins of SEQ ID NOs: 1 and 2 in accordance with Test Example 1 in WO2018/079310, These cell suspensions were seeded in wells of 96-well flat -bottomed plates. The compounds of the present invention were dissolved in DMSO, and serial dilutions of these test compounds were prepared with DMSO (1000-fold of the final concentration). Each test compound solution in DMSO or DMSO alone was diluted with RPMI-1640 cell culture medium for each cell line, and this dilution was added to wells of the cell culture plate such that the final concentration of DMSO was 0.1%, followed by culture at 37° C. for 3 days in a 5% carbon dioxide gas-containing incubator. Before and after addition of each test compound solution in DMSO, the number of cells was counted using the CellTiter-Glo® system (Promega) on the basis of the protocol recommended by Promega.
(§3) In each cell line, the rate of cell growth inhibition was calculated according to the equation shown below in wells to which each test compound was added at different concentrations. Moreover, the inhibition rate at each concentration was plotted for each test compound, and the concentration of each test compound required to give 50% cell survival rate, i.e., IC50 (nM) was determined by curve fitting software XLfit (IDBS).
(§4) Cell survival rate (%)=T/C×100
(§5) T: emission intensity in a well cultured for 3 days after addition of a test compound solution
(§6) C: emission intensity in a well cultured for 3 days after addition of DMSO
(§7) In accordance with the same procedures as shown in Test Example 2, the compounds of the present invention were tested for their inhibitory activity against the growth of the cell hoes expressing wild-type and mutated EGFRs.

In assay [2] the target is T1, human EGFR (d746-750/T790M/C797S) (Homo sapiens, UniProt P00533, C797S/DEL746-750/T790M).
T1 construct: made in house; host or cells: Sf9 insect cells, baculovirus
Nature of the assay: Inhibitory activity against EGFR (d746-750/T790M/C797S) kinase. The assay is classed as biochemical. An outline of the steps:
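GST-fused cytoplasmic domain of human EGFR d746-750/T790M/C797S (Sf9-expressed) was incubated with 250 nM biotinylated peptide, 6 μM ATP, 10 mM MgCl2 and 10 mM MnCl2 (2.5% DMSO) for 120 min at 25 °C. After an EDTA stop, phosphotyrosine was detected by Eu-PT66/SureLight APC-SA TR-FRET (665/620 nm, excitation 337 nm). Background wells received EDTA before enzyme.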

The target in assay [3] is Ba/F3-EGFR (d746-750/T790M/C797S) (Homo sapiens, UniProt P00533, DEL746-750/T790M/C797S, cells depend on it). Nature of the assay: Growth inhibition of cell line expressing EGFR (d746-750/T790M/C797S). The assay is classed as cell-based, mouse. The conditions noted are these: read-out: BaF3_EGFR (d746-750/T790M/C797S) IC50 value.
Excerpt: as §1, §2, §3, §4, §5, §6, §7

In the next assay the target is Ba/F3-EGFR (WT) (Homo sapiens, UniProt P00533). Nature of the assay: Growth inhibition of cell line expressing wild-type EGFR. The assay is classed as cell-based, mouse. The note with it: read-out: BaF3_EGFR (WT) IC50 value.
Excerpt: as §1, §2, §3, §4, §5, §6, §7

Setting [4] is: Test Example 4, Table 13, same procedures as Test Example 2.
The mark [5] stands for this setting: Test Example 1, Table 2, ATP 6 μM, 25° C., 120 minutes.
Setting [6] is: Test Example 2, Table 7, culture 3 days, CellTiter-Glo.
Where [7] appears, read: Test Example 2, Table 7, culture 3 days, EGF 50 ng/ml, CellTiter-Glo.

Read-outs that look alike come from different tables or passages of the source.

T1 sequence (P00533 with tags, fused parts or gaps DEL746-750/T790M/C797S): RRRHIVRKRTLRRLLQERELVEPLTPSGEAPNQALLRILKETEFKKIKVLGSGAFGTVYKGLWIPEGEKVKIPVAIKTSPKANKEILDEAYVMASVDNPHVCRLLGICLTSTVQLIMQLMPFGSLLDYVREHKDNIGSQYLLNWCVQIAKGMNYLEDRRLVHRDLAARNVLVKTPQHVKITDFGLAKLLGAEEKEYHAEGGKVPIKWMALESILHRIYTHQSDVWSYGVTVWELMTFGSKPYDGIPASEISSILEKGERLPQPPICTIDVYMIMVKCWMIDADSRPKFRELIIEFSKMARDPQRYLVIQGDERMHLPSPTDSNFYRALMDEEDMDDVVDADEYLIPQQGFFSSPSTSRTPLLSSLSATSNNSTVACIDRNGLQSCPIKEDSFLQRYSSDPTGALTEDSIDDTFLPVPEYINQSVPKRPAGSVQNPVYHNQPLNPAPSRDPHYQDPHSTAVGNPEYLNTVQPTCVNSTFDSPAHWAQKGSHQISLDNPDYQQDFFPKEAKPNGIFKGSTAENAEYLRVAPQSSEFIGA
Chain of Ba/F3-EGFR (WT) (P00533 whole entry, change not shown): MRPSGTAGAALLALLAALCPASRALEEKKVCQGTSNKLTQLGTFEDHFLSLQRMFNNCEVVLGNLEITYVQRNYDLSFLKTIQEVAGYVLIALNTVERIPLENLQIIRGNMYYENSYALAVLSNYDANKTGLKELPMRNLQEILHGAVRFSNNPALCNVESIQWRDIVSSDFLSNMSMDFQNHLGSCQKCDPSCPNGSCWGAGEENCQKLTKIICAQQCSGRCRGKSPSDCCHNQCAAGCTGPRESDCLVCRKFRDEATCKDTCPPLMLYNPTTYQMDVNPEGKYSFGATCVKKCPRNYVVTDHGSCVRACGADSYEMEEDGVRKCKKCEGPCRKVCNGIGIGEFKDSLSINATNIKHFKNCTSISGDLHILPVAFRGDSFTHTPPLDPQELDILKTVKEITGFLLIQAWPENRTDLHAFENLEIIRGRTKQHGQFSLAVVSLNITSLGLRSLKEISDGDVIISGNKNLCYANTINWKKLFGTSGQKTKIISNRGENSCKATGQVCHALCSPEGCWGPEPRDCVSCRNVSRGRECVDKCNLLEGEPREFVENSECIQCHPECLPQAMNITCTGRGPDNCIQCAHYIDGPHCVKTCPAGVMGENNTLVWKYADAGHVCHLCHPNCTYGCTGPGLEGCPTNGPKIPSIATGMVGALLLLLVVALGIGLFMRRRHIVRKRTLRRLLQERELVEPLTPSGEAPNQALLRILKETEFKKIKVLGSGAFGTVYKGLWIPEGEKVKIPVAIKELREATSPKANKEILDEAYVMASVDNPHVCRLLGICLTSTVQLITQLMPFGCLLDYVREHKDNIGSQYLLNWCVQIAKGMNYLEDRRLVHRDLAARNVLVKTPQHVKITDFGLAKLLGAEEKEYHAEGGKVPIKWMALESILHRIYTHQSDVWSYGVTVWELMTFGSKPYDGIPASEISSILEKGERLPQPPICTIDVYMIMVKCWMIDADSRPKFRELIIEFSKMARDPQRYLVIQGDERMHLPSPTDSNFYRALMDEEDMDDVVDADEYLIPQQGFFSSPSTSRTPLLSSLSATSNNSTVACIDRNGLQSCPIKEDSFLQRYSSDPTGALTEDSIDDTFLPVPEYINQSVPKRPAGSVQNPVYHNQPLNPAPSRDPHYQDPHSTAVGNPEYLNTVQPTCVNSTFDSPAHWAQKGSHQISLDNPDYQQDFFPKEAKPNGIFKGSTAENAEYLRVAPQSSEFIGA
Chain of Ba/F3-EGFR (d746-750/T790M/C797S) (P00533 with tags, fused parts or gaps DEL746-750/T790M/C797S): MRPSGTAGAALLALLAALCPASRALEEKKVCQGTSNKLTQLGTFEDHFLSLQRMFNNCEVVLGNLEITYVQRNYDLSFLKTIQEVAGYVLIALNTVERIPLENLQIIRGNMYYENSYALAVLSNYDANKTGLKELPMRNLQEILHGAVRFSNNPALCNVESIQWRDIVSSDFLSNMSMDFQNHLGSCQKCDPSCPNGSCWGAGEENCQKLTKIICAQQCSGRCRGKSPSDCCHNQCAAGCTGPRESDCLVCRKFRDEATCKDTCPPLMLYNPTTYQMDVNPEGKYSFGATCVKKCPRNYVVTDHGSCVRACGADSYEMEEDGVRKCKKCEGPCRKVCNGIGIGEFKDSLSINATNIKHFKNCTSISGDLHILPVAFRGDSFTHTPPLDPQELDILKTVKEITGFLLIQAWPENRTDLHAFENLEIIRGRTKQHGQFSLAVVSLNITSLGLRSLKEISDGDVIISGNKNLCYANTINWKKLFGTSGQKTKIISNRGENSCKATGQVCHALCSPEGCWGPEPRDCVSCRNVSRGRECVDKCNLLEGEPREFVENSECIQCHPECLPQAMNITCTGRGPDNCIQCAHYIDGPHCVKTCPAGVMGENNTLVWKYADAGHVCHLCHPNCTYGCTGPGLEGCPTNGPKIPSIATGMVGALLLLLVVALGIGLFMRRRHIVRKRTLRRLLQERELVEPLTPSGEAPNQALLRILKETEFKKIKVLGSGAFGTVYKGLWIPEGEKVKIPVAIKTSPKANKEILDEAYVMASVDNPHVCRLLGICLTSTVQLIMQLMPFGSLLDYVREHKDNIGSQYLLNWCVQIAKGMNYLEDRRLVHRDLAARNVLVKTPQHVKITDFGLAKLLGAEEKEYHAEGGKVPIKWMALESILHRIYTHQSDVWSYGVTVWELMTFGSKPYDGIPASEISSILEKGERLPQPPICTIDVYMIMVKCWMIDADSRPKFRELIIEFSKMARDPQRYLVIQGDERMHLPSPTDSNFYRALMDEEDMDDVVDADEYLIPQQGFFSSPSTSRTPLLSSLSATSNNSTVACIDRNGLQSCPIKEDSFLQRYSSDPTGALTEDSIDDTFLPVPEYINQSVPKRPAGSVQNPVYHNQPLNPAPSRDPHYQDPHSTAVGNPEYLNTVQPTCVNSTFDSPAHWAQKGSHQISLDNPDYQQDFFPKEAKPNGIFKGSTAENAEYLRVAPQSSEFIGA
Chain of Ba/F3-EGFR (L858R/T790M/C797S) (P00533 whole entry T790M/C797S/L858R): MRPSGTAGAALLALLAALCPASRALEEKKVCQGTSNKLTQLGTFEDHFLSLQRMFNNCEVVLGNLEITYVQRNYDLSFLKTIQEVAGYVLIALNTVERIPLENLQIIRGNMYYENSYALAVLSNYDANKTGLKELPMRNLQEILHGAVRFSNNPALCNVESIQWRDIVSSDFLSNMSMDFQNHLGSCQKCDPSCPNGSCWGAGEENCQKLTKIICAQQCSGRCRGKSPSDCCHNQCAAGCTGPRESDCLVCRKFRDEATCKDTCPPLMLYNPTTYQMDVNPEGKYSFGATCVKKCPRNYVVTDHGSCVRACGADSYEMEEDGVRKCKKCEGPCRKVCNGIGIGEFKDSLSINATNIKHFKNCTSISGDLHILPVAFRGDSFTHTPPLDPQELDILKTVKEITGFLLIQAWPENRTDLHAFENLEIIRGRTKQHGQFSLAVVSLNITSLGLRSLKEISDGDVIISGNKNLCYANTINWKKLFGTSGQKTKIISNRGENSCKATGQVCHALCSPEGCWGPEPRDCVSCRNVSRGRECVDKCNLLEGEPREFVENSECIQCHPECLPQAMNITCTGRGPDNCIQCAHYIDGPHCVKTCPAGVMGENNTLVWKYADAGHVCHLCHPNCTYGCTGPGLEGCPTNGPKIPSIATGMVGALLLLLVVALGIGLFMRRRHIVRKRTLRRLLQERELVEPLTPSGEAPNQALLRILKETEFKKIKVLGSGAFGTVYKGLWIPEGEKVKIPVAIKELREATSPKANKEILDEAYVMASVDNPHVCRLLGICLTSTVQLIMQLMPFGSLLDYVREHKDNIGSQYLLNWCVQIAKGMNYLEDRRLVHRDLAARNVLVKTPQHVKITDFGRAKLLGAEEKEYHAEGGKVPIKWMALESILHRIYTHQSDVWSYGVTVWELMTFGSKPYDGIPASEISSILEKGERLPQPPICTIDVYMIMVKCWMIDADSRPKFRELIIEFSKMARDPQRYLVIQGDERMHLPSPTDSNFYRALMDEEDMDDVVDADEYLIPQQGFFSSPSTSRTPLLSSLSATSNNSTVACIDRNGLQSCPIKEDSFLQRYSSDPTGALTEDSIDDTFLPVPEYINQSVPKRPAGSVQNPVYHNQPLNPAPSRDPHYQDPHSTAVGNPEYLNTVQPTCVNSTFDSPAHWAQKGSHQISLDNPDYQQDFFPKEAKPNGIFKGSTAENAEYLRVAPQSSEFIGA

For the compound `C#Cc1c(-c2cnc3ccccc3c2)c2c(N)ncnc2n1C12CCC(NC(=O)c3cncc(F)c3)(CC1)C2` [Example 35, N-(4-(4-Amino-6-ethynyl-5-(quinolin-3-yl)-7H-pyrrolo[2,3-d]pyrimidin-7-yl)-bicyclo-[2.2.1]heptan-1-yl)-5-fluoronicotinamide], the GI50 in assay [1] (setting [4]) is 348 nM; in assay [3] (setting [4]), 44 nM; on Ba/F3-EGFR (WT) (setting [4]), 2960 nM. In addition, the IC50 in assay [2] (setting [5]) is less than 0.3 nM.

On to `C#Cc1c(-c2cnc3ccccc3c2)c2c(N)ncnc2n1C12CCC(NC(=O)c3noc(C)n3)(CC1)C2` [Example 36, N-(4-(4-Amino-6-ethynyl-5-(quinolin-3-yl)-7H-pyrrolo[2,3-d]pyrimidin-7-yl)-bicyclo-[2.2.1]heptan-1-yl)-5-methyl-1,2,4-oxadiazole-3-carboxamide], for which the GI50 in assay [1] (setting [4]) is 448 nM; in assay [3] (setting [4]) it was 59 nM; on Ba/F3-EGFR (WT) (setting [4]) it was greater than 2000 nM. Besides, the IC50 in assay [2] (setting [5]) was less than 0.3 nM.

Regarding `C#Cc1c(-c2cnc3ccccc3c2)c2c(N)ncnc2n1C12CCC(NC(=O)c3cnc(C)cn3)(CC1)C2` [Example 37, N-(4-(4-Amino-6-ethynyl-5-(quinolin-3-yl)-7H-pyrrolo[2,3-d]pyrimidin-7-yl)-bicyclo-[2.2.1]heptan-1-yl)-5-methylpyrazine-2-carboxamide], the GI50 amounted to 270 nM in assay [1] (setting [6]), 21 nM in assay [3] (setting [6]) and 2970 nM on Ba/F3-EGFR (WT) (setting [7]). Also, the IC50 in assay [2] (setting [5]) was less than 0.3 nM.

Regarding `C#Cc1c(-c2cnc3ccccc3c2)c2c(N)ncnc2n1C12CCC(NC(C)=O)(CC1)C2` [Example 39, N-(4-(4-Amino-6-ethynyl-5-(quinolin-3-yl)-7H-pyrrolo[2,3-d]pyrimidin-7-yl)-bicyclo-[2.2.1]heptan-1-yl)acetamide], the GI50 in assay [1] (setting [4]) was 658 nM; in assay [3] (setting [4]), 98 nM; at Ba/F3-EGFR (WT) (setting [4]), 2360 nM. The IC50 in assay [2] (setting [5]) is less than 0.3 nM.

With `C#Cc1c(-c2cnc3ccccc3c2)c2c(N)ncnc2n1C12CCC(NC(=O)c3ccco3)(CC1)C2` [Example 41], the GI50 in assay [1] (setting [4]) was 843 nM; in assay [3] (setting [4]), 102 nM; on Ba/F3-EGFR (WT) (setting [4]), 3240 nM. Besides, in assay [2] (setting [5]), the IC50 is less than 0.3 nM.

For the compound `C#Cc1c(-c2cnc3ccccc3c2)c2c(N)ncnc2n1C12CCC(NC(=O)c3ccncc3)(CC1)C2` [Example 43], the GI50 in assay [1] (setting [6]) was found to be 417 nM; in assay [3] (setting [6]), 57 nM; on Ba/F3-EGFR (WT) (setting [7]), 3290 nM. Also, the IC50 in assay [2] (setting [5]) is less than 0.3 nM.

As for `C#Cc1c(-c2cnc3ccccc3c2)c2c(N)ncnc2n1C12CCC(NC(=O)c3ccno3)(CC1)C2` [Example 44], the GI50 in assay [1] (setting [4]) is 268 nM; in assay [3] (setting [4]) it was 30 nM; on Ba/F3-EGFR (WT) (setting [4]), 2260 nM. In assay [2] (setting [5]), this compound came in with an IC50 of less than 0.3 nM.

In the case of `C#Cc1c(-c2cnc3ccccc3c2)c2c(N)ncnc2n1C12CCC(NC(=O)c3cccnc3)(CC1)C2` [Example 45], the GI50 in assay [1] (setting [6]) is 305 nM; in assay [3] (setting [6]), 42 nM; at Ba/F3-EGFR (WT) (setting [7]), 3400 nM. This compound gave an IC50 in assay [2] (setting [5]) of less than 0.3 nM.

Take `C#Cc1c(-c2cnc3ccccc3c2)c2c(N)ncnc2n1C12CCC(NC(=O)c3ncco3)(CC1)C2` [Example 46]: the GI50 in assay [1] (setting [6]) was found to be 204 nM; in assay [3] (setting [6]), 19 nM; at Ba/F3-EGFR (WT) (setting [7]), 2410 nM. The IC50 in assay [2] (setting [5]) is less than 0.3 nM.

As for `C#Cc1c(-c2cnc3ccccc3c2)c2c(N)ncnc2n1C12CCC(NC(=O)c3cnccn3)(CC1)C2` [Example 48], the GI50 was found to be 223 nM in assay [1] (setting [6]), 24 nM in assay [3] (setting [6]) and 2490 nM at Ba/F3-EGFR (WT) (setting [7]). Further, in assay [2] (setting [5]), the IC50 is less than 0.3 nM.

As to `C#Cc1c(-c2cnc3ccccc3c2)c2c(N)ncnc2n1C12CCC(NC(=O)c3cccnn3)(CC1)C2` [Example 49], the GI50 was 290 nM in assay [1] (setting [6]), 19 nM in assay [3] (setting [6]) and 3070 nM at Ba/F3-EGFR (WT) (setting [7]). The same compound returned an IC50 in assay [2] (setting [5]) of less than 0.3 nM.

For the compound `C#Cc1c(-c2cnc3ccccc3c2)c2c(N)ncnc2n1C12CCC(NC(=O)c3nccs3)(CC1)C2` [Example 53], the values for the GI50 (in assay [1] (setting [4]); in assay [3] (setting [4]); on Ba/F3-EGFR (WT) (setting [4])) were 978 nM, 162 nM and 3290 nM, respectively. For the same compound, the concentration for half-maximal inhibition (IC50) in assay [2] (setting [5]) is less than 0.3 nM.

For `C#Cc1c(-c2cnc3ccccc3c2)c2c(N)ncnc2n1C12CCC(NC(=O)[C@@H]3CN(C)CCO3)(CC1)C2` [Example 63, (S)-N-(4-(4-Amino-6-ethynyl-5-(quinolin-3-yl)-7H-pyrrolo[2,3-d]pyrimidin-7-yl) -bicyclo[2.2.1]heptan-1-yl)-4-methylmorpholine-2-carboxamide], the GI50 in assay [1] (setting [4]) stood at 672 nM; in assay [3] (setting [4]), 73 nM; at Ba/F3-EGFR (WT) (setting [4]) it was 2990 nM. Further, the half-inhibitory concentration (IC50) in assay [2] (Test Example 3, Table 8; same procedures as 1) in Test Example 1) was less than 0.3 nM.
